Data published in patent US8697366B2, “Anti-cancer drug screening method using RORα” (Seoul National University Industry Foundation, priority 2009, dated 2014).
“Also recorded” adds a separate entry of the source.

Legend:
Type in all cases: cell-based
[1] = system: RORα; experiment: Phosphorylation of RORα in HCT116 cells (immunoprecipitation / immunoblot with anti-phospho-Ser or anti-phospho-RORαS35 antibody)
Protocol: (A) Schematic representation of RORα showing the location of the N-terminal domain (NTD), the DNA-binding domain (DBD), the hinge region, the ligand-binding domain (LBD), and the AF-2 domain. […] HEK293 cells were cotransfected with plasmids expressing each His-tagged RORα deletion construct and β-catenin. Whole cell extracts (left panel) and Ni^+-NTA-agarose pulldown materials (right panel) were analyzed by immunoblotting against anti-β-catenin IgG or anti-Xpress IgG. (C) Illustration of the structure of deletion fragments of RORα(SEQ ID NO:17). (D) Interaction of each RORα deletion construct with HisMax-β-catenin was assessed by Ni^+-NTA-agarose pulldown assay. […] The phosphorylated peptide samples were analyzed by LC-MS analysis. […] Immunoprecipitation assay was conducted with anti-Flag antibody, and the phosphorylated RORα was detected by immunoblot analysis with anti-phospho-Ser antibody. […] The reaction samples were subjected to 12% SDSPAGE, and phosphorylated RORα was detected by autoradiography. […] The fluorescence-conjugated secondary antibody was visualized using fluorescence microscopy, and nuclear staining with DAPI was shown.
(A) The specificity of the antibody raised against phosphorylated RORαS35 peptide (SEQ ID NO:18) was assessed by dot blot analysis. (B) Treatment of TPA increased phophorylated RORα on S35 site as assessed by immunoprecipitation with anti-phospho-RORαS35 antibody. […]

[2] = system: binding of RORα to β-catenin; experiment: Coimmunoprecipitation of RORα with β-catenin in HCT116 cells
Protocol: (§1) (A) The specificity of the antibody raised against phosphorylated RORαS35 peptide (SEQ ID NO:18) was assessed by dot blot analysis. (B) Treatment of TPA increased phophorylated RORα on S35 site as assessed by immunoprecipitation with anti-phospho-RORαS35 antibody. […] (D) Treatment of Go6976, a PKCα inhibitor, abolished TPA-dependent phosphorylation of RORα as assessed by immonoblotting with anti-phospho-RORαS35 antibody. (E) HCT116 cells were transfected with Flag-RORα WT, S35D, or S35A, and the cell extracts were immunoprecipitated with anti-Flag antibody followed by immunoblotting against anti-β-catenin antibody. (F) Coimmunoprecipitation assay of β-catenin with either RORαWT or S35A in HCT116 cells after treatment with TPA in the absence or presence of Go6976. (G) ChIP analysis on the cyclin D1 promoter after transfection with Flag-RORαWT, S35A, or S35D in HCT116 cells. (H) ChIP analysis on the cyclin D1 promoter in HCT116 cells after TPA treatment for indicated time. (I) ChIP assay was performed on the cyclin D1 promoter in the absence or presence of siRNA against PKCα with treatment of TPA for 90 min. (J) Real-time quantitative RT-PCR analysis of the cyclin D1 transcript in HCT116 cells in the presence of TPA for indicated time. (K) Knockdown effect of siRNA against RORα or PKCα was assessed in the expression of the cyclin D1 transcript in HCT116 cells.

[3] = system: cyclin D1 transcript; experiment: Real-time quantitative RT-PCR of the cyclin D1 transcript in HCT116 cells
Protocol: The abundance of mRNA was detected by an ABI prism 7300 system with SYBR Green (molecular probes). Primer pairs were designed to amplify 90-150 bp mRNA specific fragments, and confirmed to be unique products by melting curve analysis. The PCR conditions were 95° C. (5 min) and 40 cycles of 95° C. (30 s), 57° C. (30 s), and 72° C. (30 s).
The quantity of mRNA was calculated using the ΔΔCt method and normalized by using primers to detect β-actin or HPRT. All reactions were performed in triplicates.

[4] = system: cyclin D1 promoter; experiment: ChIP assay on the cyclin D1 promoter in HCT116 cells
Protocol: as §1
(B) Cyclin D1 transcript was measured after introducing siRNAs against RORα or PKCα in the presence of Wnt5a in HCT116 cells. (C) Real-time quantitative RTPCR analysis of the cyclin D1 transcript in HCT116 cells after introducing RORα, S35A, or S35D in the presence of Wnt5a. (D) […] on the cyclin D1 promoter with treatment of either TPA or Wnt5a in HCT116 cells. Occupancy of the cyclin D1 promoter by phosphorylated RORα, β-catenin, RNA polymerase II, H3K9me2, H3K4me2, CBP, pCAF, p300, or SMRT was indicated. (E) Transwell cell migration assay for RORα, RORαS35A, or RORαS35D-expressing HCT116 cells with treatment of Wnt5a. Values are represented as mean±s.d. for three independent experiments. (F) The anchorage-independent growth of HCT116 cells expressing RORα, RORαS35A, or RORαS35D in soft agar. Values are expressed as mean±SEM for two experiments in 6 place wells. Colonies were counted in 10 different fields and total colony number/well was calculated. Representative image is shown for each group.
The ChIP, two-step ChIP, and shRNA-coupled ChIP assays were conducted as previously described (Baek et al., 2002; Kim et al., 2005).

SMILES | TPA-induced phosphorylation of RORα ([1]; in presence of TPA, anti-phospho-RORαS35 immunoblot) | TPA-induced increased binding of RORα to β-catenin ([2]; TPA plus Go6976) | cyclin D1 transcript [3] | phosphorylation of RORα ([1]; HCT116 cells, treatment alone) | RNA polymerase II recruitment on the cyclin D1 promoter [4] | methylation of histone H3K9 on the cyclin D1 promoter [4] | recruitment of CBP, p300, and pCAF coactivators to the cyclin D1 promoter [4] | recruitment of β-catenin on the cyclin D1 promoter [4] | recruitment of phosphorylated RORα on the cyclin D1 promoter ([4]; anti-phospho-RORαS35 IgG) | binding of RORα to β-catenin ([2]; TPA treatment)
Cn1c2ccccc2c2c3c(c4c5ccccc5n(CCC#N)c4c21)CNC3=O [Go6976] | abolished | almost completely abolished |  |  |  |  |  |  |  | 
CCCCCCCCCCCCCC(=O)O[C@@H]1[C@@H](C)[C@@]2(O)[C@@H](C=C(CO)C[C@]3(O)C(=O)C(C)=C[C@@H]23)[C@@H]2C(C)(C)[C@]12OC(C)=O [TPA, 12-O-tetradecanoylphorbol-13acetate] |  |  | downregulation | increased phosphorylation | concomitant decrease; also recorded: decreased | increased methylation | significantly decreased | not altered | increased the recruitment | significantly increased
